The text below walks through data of US12643858B2 (Inipharm, Inc., priority 2020, dated 2026).

The target in the assay is T1, HSD17B13 enzyme (Homo sapiens, UniProt Q7Z5P4).
T1 construct: His; made in house; host or cells: E. coli
T1 sequence (Q7Z5P4 20-300): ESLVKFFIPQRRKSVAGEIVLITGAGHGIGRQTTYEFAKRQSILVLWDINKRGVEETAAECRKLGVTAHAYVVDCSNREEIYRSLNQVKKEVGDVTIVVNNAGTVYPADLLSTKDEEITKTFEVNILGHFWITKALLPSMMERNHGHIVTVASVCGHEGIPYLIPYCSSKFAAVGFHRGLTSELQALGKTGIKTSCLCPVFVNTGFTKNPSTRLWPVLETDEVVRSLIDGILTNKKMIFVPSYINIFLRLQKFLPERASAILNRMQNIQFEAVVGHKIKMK
Nature of the assay: Estrone detection assay (LC/MS, estradiol to estrone conversion) for HSD17B13 activity. To be noted: substrate 4 μM Estradiol, 6 mM NAD+, 30 nM HSD17B13 enzyme, 2 hours at 26.5° C. It is filed as biochemical. Here is the method:
Example B: Estrone Detection Assay for Evaluation of HSD17ß13 Activity and Identification of Inhibitors
The liquid chromatography/mass spectrometry (LC/MS) estrone detection assay monitors the conversion of estradiol to estrone by HSD17B13. This assay was undertaken in a 96wp format (Eppendorf deep well Plate 96/500) in an 80 μl reaction volume containing: 4 μM of Estradiol (E2; Cayman; Ser. No. 10/006,315), 6 mM NAD+(Sigma; #N0623) and 30 nM HSD17B13 enzyme (in-house; E. coli expressed His-tagged, purified, soluble protein) in a reaction containing […] potassium phosphate buffer pH 7.4, with 0.5% vehicle (DMSO). Reactions were incubated for 2 hours at 26.5° C., and estradiol (E2) conversion to estrone (E1) was quantitated by LC-MS/MS based analyte detection for both E2 and E1 using LCMS grade reagents.
Reactions were terminated by the addition of two volumes of acetonitrile (MeCN; LCMS grade; CAS #75/05/8) containing deuterated (D4)-E1 used as internal standard (Clear Synth; #CS-T-54273; 500 ng/mL final concentration). Samples were applied to pre-prepared Bond Elut-C18 extraction cartridges (3 mL; Agilent; Ser. No. 12/102,028), washed and eluted in MeCN. Eluates were dried under nitrogen and re-suspended in 60% methanol (LCMS grade methanol; CAS #67/56/1) before submission for analysis. Aqueous linearity for E2 and E1 were included for quantification.
Analysis of samples was undertaken on a XBridge BEH C18 column (Waters; #186003033) using 0.1% Diethyl Amine in MeCN (mobile phase A; DEA CAS #109-89-7) and 0.1% Diethyl Amine in milli-Q water (mobile phase B) in a 3 min gradient allowing 25% B. Analytes were detected in negative mode using MRM analysis, with E2 having a RT of 1.85 min and E1 having a RT of 2 min. Activity of the enzyme, in the absence of NAD+, was used to evaluate specificity of conversion. Enzyme activity in the presence of test samples was expressed as a percentage of the uninhibited enzyme activity, and plotted versus inhibitor concentration. Non-linear regression was performed using a four-parameter logistic model and GraphPad Prism software (GraphPad Software, La Jolla, CA). All assessments were undertaken in duplicate evaluations and pooled during extraction process and subsequently injected as duplicates for LC-MS/MS analysis.
In the case of `O=S1(=O)CCN(c2ccc(-c3nccc(Oc4ccc(F)c(O)c4F)n3)cc2)CC1` [Example 116, 4-(4-(4-(2,4-difluoro-3-hydroxyphenoxy)pyrimidin-2-yl)phenyl) thiomorpholine 1,1-dioxide], the IC50 is ≤ 100 nM. `Oc1c(F)ccc(Oc2ccnc(-c3ccc(N4CCOCC4)cc3)n2)c1F` [Example 115, 2,6-difluoro-3-((2-(4-morpholinophenyl)pyrimidin-4-yl)oxy)phenol]: the IC50 is ≤ 100 nM. In turn, `Oc1c(Cl)ccc(Oc2ccnc(-c3ccc(N4CCOCC4)cc3)n2)c1F` [Example 117, 6-chloro-2-fluoro-3-((2-(4-morpholinophenyl)pyrimidin-4-yl)oxy)phenol] came in with an IC50 of 100 to 500 nM. As for `Oc1c(Cl)ccc(Oc2ccnc(-c3ccc(N4CCOCC4)cc3)n2)c1Cl` [Example 118, 2,6-dichloro-3-((2-(4-morpholinophenyl)pyrimidin-4-yl)oxy)pheno], the IC50 was 500 to 1000 nM.
